Data from patent US12458631B2, “Use of dihydroberberine or its derivatives for anti-glycation” (NANJING NUTRABUILDING BIO-TECH CO., LTD., priority 2022, dated 2025).

What was measured:
Assay type in all cases: in vivo, Kunming mice
[1] = Fasting blood glucose level by glucometer in D-galactose-injected mice; settings: for blood glucose level decreased compared to the non-supplement group: 14th week
Procedure: (§1) Six-week-old, male, Kunming mice, weighed about 30±2 g, were obtained from Cavens Lab Animal (Changzhou, China) and housed in a controlled room (25±2° C., 60% relative humidity, 12 h light/dark cycle) with free access to water and standard laboratory diet. After an acclimation period (1 week), mice were randomly divided into 3 groups of 9 animals. Choose the mice's back skin as the experimental observation area, use a razor to shave off the back hair of the mice. Apply 5% sodium sulfide solution to the back of the mice to remove the hair. Then all mice were injected subcutaneously with the same volume of D-galactose (1000 mg/kg), once a day for 8 weeks. During the entire process of the experiment, the daily food intake and weight of mice were recorded every day, and the D-galactose injection dose was adjusted following the weight change. The 3 groups of 9 animals were (1) non-supplement group (Con, Group 1); (2) DHB supplement group (DHB, 100 mg/kg, Group 2); (3) DHB supplement group (DHB, 200 mg/kg, Group 3). Mice in group 2 and group 3 were injected subcutaneously (s.c.) into their back skins with the corresponding concentrations of DHB before each major meal once daily for 6 weeks. When all mice were on fasting, collect approximately 10 μL of blood by the tail nick for 3 times, at the beginning of the trial (0 week), after the D-galactose injection (8th week), and at the end of the trial (14th week). Use the glucometer to measure the glucose level.

[2] = system: H2O2; assay: H2O2 content in skin homogenate of D-galactose-injected mice; settings: 14th week
Procedure: as §1, with “[…] The levels of H2O2, MDA, SOD, CAT, GSH, and GSH-Px” for “Mice”, “the skin were detected with relative kits as reference. […] Quantitative polymerase chain reaction (QPCR)” for “group 2”, “western blot methods” for “group 3”, “used” for “injected subcutaneously (s.c.) into their back skins with the corresponding concentrations of DHB before each major meal once daily for 6 weeks. When all mice were on fasting, collect approximately 10 μL of blood by the tail nick for 3 times, at the beginning of the trial (0 week), after the D-galactose injection (8th week), and at the end of the trial (14th week). Use the glucometer”, “expression of MMP-1 in the skin.” for “glucose level.”

[3] = system: MDA; assay: MDA content in skin of D-galactose-injected mice (kit/ELISA); settings: group 3, DHB 200 mg/kg s.c., 14th week
Procedure: as §1, with “[…] The levels of H2O2, MDA, SOD, CAT, GSH, and GSH-Px” for “Mice”, “the skin were detected with relative kits as reference. […] Quantitative polymerase chain reaction (QPCR)” for “group 2”, “western blot methods” for “group 3”, “used” for “injected subcutaneously (s.c.) into their back skins with the corresponding concentrations of DHB before each major meal once daily for 6 weeks. When all mice were on fasting, collect approximately 10 μL of blood by the tail nick for 3 times, at the beginning of the trial (0 week), after the D-galactose injection (8th week), and at the end of the trial (14th week). Use the glucometer”, “expression of MMP-1 in the skin.” for “glucose level.”

[4] = system: SOD; assay: SOD activity in skin of D-galactose-injected mice; settings: 14th week
Procedure: as §1, with “[…] The levels of H2O2, MDA, SOD, CAT, GSH, and GSH-Px” for “Mice”, “the skin were detected with relative kits as reference. […] Quantitative polymerase chain reaction (QPCR)” for “group 2”, “western blot methods” for “group 3”, “used” for “injected subcutaneously (s.c.) into their back skins with the corresponding concentrations of DHB before each major meal once daily for 6 weeks. When all mice were on fasting, collect approximately 10 μL of blood by the tail nick for 3 times, at the beginning of the trial (0 week), after the D-galactose injection (8th week), and at the end of the trial (14th week). Use the glucometer”, “expression of MMP-1 in the skin.” for “glucose level.”

[5] = system: CAT; assay: CAT activity in skin of D-galactose-injected mice; settings: DHB groups (100 and 200 mg/kg s.c.), 14th week
Procedure: as §1, with “[…] The levels of H2O2, MDA, SOD, CAT, GSH, and GSH-Px” for “Mice”, “the skin were detected with relative kits as reference. […] Quantitative polymerase chain reaction (QPCR)” for “group 2”, “western blot methods” for “group 3”, “used” for “injected subcutaneously (s.c.) into their back skins with the corresponding concentrations of DHB before each major meal once daily for 6 weeks. When all mice were on fasting, collect approximately 10 μL of blood by the tail nick for 3 times, at the beginning of the trial (0 week), after the D-galactose injection (8th week), and at the end of the trial (14th week). Use the glucometer”, “expression of MMP-1 in the skin.” for “glucose level.”

[6] = system: GSH; assay: GSH activity in skin of D-galactose-injected mice; settings: DHB groups (100 and 200 mg/kg s.c.), 14th week
Procedure: as §1, with “[…] The levels of H2O2, MDA, SOD, CAT, GSH, and GSH-Px” for “Mice”, “the skin were detected with relative kits as reference. […] Quantitative polymerase chain reaction (QPCR)” for “group 2”, “western blot methods” for “group 3”, “used” for “injected subcutaneously (s.c.) into their back skins with the corresponding concentrations of DHB before each major meal once daily for 6 weeks. When all mice were on fasting, collect approximately 10 μL of blood by the tail nick for 3 times, at the beginning of the trial (0 week), after the D-galactose injection (8th week), and at the end of the trial (14th week). Use the glucometer”, “expression of MMP-1 in the skin.” for “glucose level.”

[7] = system: GSH-Px; assay: GSH-Px activity in skin of D-galactose-injected mice; settings: 14th week
Procedure: as §1, with “[…] The levels of H2O2, MDA, SOD, CAT, GSH, and GSH-Px” for “Mice”, “the skin were detected with relative kits as reference. […] Quantitative polymerase chain reaction (QPCR)” for “group 2”, “western blot methods” for “group 3”, “used” for “injected subcutaneously (s.c.) into their back skins with the corresponding concentrations of DHB before each major meal once daily for 6 weeks. When all mice were on fasting, collect approximately 10 μL of blood by the tail nick for 3 times, at the beginning of the trial (0 week), after the D-galactose injection (8th week), and at the end of the trial (14th week). Use the glucometer”, “expression of MMP-1 in the skin.” for “glucose level.”

[8] = system: MMP-1; assay: MMP-1 expression in skin (QPCR and western blot) of D-galactose-injected mice; settings: 14th week
Procedure: as §1, with “[…] The levels of H2O2, MDA, SOD, CAT, GSH, and GSH-Px” for “Mice”, “the skin were detected with relative kits as reference. […] Quantitative polymerase chain reaction (QPCR)” for “group 2”, “western blot methods” for “group 3”, “used” for “injected subcutaneously (s.c.) into their back skins with the corresponding concentrations of DHB before each major meal once daily for 6 weeks. When all mice were on fasting, collect approximately 10 μL of blood by the tail nick for 3 times, at the beginning of the trial (0 week), after the D-galactose injection (8th week), and at the end of the trial (14th week). Use the glucometer”, “expression of MMP-1 in the skin.” for “glucose level.”

[9] = system: skin epidermis and dermis; assay: H&E staining, quantitation of skin epidermis and dermis in D-galactose-injected mice; settings: 14th week
Procedure: Six-week-old, male, Kunming mice, weighed about 30±2 g, were obtained from Cavens Lab Animal (Changzhou, China) and housed in a controlled room (25±2° C., 60% relative humidity, 12 h light/dark cycle) with free access to water and standard laboratory diet. After an acclimation period (1 week), mice were randomly divided into 3 groups of 9 animals. Choose the mice's back skin as the experimental observation area, use a razor to shave off the back hair of the mice. Apply 5% sodium sulfide solution to the back of the mice to remove the hair. Then all mice were injected subcutaneously with the same volume of D-galactose (1000 mg/kg), once a day for 8 weeks. During the entire process of the experiment, the daily food intake and weight of mice were recorded every day, and the D-galactose injection dose was adjusted following the weight change. The 3 groups of 9 animals were (1) non-supplement group (Con, Group 1); (2) DHB supplement group (DHB, 100 mg/kg, Group 2); (3) DHB supplement group (DHB, 200 mg/kg, Group 3). Mice in group 2 and group 3 were injected subcutaneously (s.c.) into their back skins with the corresponding concentrations of DHB before each major meal once daily for 6 weeks. All mice were sacrificed following 6 weeks at the end of the experiment. The skin tissue was divided into three parts, the first part was stored at −80° C. until assays were performed, the second part was immediately collected, weighed and homogenized (4° C.; 3500 rpm for 15 min) for biochemical and histological analyses, and the third part was fixed in 10% formalin until further use. Hematoxylin-eosin staining (H&E) and Masson staining were performed on skin samples. Skins were fixed in 10% formalin 48 h at room temperature and paraffin-embedded afterward. With H&E staining, skins were sliced into 4 μm, dehydrated of gradient ethanol, and stained with hematoxylin and eosin. For Masson staining, sliced skins were stained with a Masson kit as the instruction said. H&E staining to observe the skin epidermis and dermis structure change and analyze stained collagen fibers by Image-Pro Plus 6.0 in the perspective of 400 times to detect the percentage of collagen fibers area. To further examine the content of skin collagen fibers, this was determined by Masson's staining. Then quantitation of skin epidermis and dermis, and collagen were calculated based on the results of observation.

[10] = system: skin collagen fibers; assay: Masson staining, quantification of skin collagen fibers in D-galactose-injected mice; settings: 14th week
Procedure: as §1, with “[…] To further examine the content of skin collagen fibers, this was determined by Masson's staining. Then quantitation of skin epidermis” for “Mice in group 2”, “dermis, and collagen” for “group 3”, “calculated based on” for “injected subcutaneously (s.c.) into their back skins with”, “results” for “corresponding concentrations”, “observation.” for “DHB before each major meal once daily for 6 weeks. When all mice were on fasting, collect approximately 10 μL of blood by the tail nick for 3 times, at the beginning of the trial (0 week), after the D-galactose injection (8th week), and at the end of the trial (14th week). Use the glucometer to measure the glucose level.”

[11] = DHB groups (100 and 200 mg/kg s.c.)
[12] = DHB supplemented groups (100 and 200 mg/kg s.c.)

COc1ccc2c(c1OC)CN1CCc3cc4c(cc3C1=C2)OCO4 [DHB, Dihydroberberine]
blood glucose levels after supplementation [1, 11]: decreased significantly
blood glucose level decreased compared to the non-supplement group ([1]; group 2, DHB 100 mg/kg s.c. once daily for 6 weeks): about 39%
blood glucose level decreased compared to the non-supplement group ([1]; group 3, DHB 200 mg/kg s.c. once daily for 6 weeks): ~44%
H2O2 content decreased compared to the non-supplement group ([2]; group 2, DHB 100 mg/kg s.c.): about 33%
H2O2 content decreased compared to the non-supplement group ([2]; group 3, DHB 200 mg/kg s.c.): ~58%
content of MDA lower than in the control group [3]: 63%
SOD activity after DHB supplementation [4, 11]: significantly improved
SOD increase compared to non-supplementation group ([4]; group 3, DHB 200 mg/kg s.c.): about 2.9 times
CAT activity after DHB supplementation [5]: significantly improved
GSH activity after DHB supplementation [6]: significantly improved
GSH-Px activity after DHB supplementation [7, 11]: significantly improved
GASH-Px increase compared to non-supplementation group ([7]; group 3, DHB 200 mg/kg s.c.): ~1.8 times
MMP-1 expression reduced compared to non-supplement group ([8]; group 2, DHB 100 mg/kg s.c.): about 23%
MMP-1 expression reduced compared to non-supplement group ([8]; group 3, DHB 200 mg/kg s.c.): about 51%
dermal thickness vs control group [9, 12]: significant thicker
epidermal thickness vs control group [9, 12]: significant thicker
prevention or reduction of dermal thickness decrease ([9]; group 3, DHB 200 mg/kg s.c.): 78%
prevention or reduction of epidermal thickness decrease ([9]; group 3, DHB 200 mg/kg s.c.): 72%
contents of collagen in the skin tissue compared with the control group ([10]; DHB supplement groups (100 and 200 mg/kg s.c.)): significantly higher
content of collagen in the skin tissue, higher than control group ([10]; higher dose group, DHB 200 mg/kg s.c.): 2.2 times
